Patent publication EP0463456A1, “Phosphorus-containing HMG-CoA reductase inhibitors, new intermediates and their use” (E.R. SQUIBB & SONS, INC., priority 1990, dated 1992)

Molecular target: T1, Human skin fibroblasts (Homo sapiens, UniProt P04035)
T1 sequence (P04035 1-888): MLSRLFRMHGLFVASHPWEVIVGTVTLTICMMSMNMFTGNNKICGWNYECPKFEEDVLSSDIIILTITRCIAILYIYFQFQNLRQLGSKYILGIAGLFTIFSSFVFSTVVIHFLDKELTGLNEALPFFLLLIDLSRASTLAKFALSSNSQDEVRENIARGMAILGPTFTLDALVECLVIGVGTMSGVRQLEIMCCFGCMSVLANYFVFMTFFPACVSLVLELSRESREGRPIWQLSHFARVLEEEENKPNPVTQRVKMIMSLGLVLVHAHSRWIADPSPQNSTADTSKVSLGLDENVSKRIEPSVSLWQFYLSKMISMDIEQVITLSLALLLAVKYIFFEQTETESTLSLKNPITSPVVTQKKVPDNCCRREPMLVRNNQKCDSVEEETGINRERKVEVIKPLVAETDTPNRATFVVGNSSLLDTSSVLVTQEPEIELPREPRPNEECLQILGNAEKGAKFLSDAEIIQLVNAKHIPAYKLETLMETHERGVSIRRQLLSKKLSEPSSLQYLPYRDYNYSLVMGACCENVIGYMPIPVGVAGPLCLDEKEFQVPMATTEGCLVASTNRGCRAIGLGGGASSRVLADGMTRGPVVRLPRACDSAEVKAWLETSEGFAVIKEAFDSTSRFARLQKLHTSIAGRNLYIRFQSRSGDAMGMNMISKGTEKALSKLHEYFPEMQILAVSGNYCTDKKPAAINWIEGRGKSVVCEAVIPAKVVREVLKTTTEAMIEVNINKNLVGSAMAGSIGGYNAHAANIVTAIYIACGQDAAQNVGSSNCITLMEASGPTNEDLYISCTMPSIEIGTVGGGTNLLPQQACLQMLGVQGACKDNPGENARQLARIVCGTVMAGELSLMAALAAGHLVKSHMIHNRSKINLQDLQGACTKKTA
Assay: Cholesterol Synthesis in Human Skin Fibroblasts (14C-acetate incorporation into cholesterol)
Format: cell-based
Conditions: inhibition of 14C-acetate incorporation into cholesterol; 30 minutes preincubation, 4 hours with acetate; read-out: Fibroblasts 150
Method: 3) Cholesterol Synthesis in Human Skin Fibroblasts
Compound selectivity favoring greater inhibitory activity in hepatic tissue would be an attribute for a cholesterol synthesis inhibitor. Therefore, in addition to evaluating cholesterol synthesis inhibitors in hepatocytes, these compounds are also tested for their activity as inhibitors of cholesterol synthesis in cultured fibroblasts. […]
a. Human Skin Fibroblast Cultures
Human skin fibroblasts (passage 7-27) are grown in Eagles' minimal essential medium (EM) containing 10% fetal calf serum. For each experiment, stock cultures are trypsonized to disperse the cell monolayer, counted, and plated in 35 mm tissue culture wells (5x10^S cells/2.0 ml). […]
Induced fibroblast cultures are washed with EMEM100 (Earle's minimal essential medium). […] The organic phase is dried under nitrogen, and the residue resuspended in chloroform:methanol (2:1) (100 µl), and the total sample spotted on silica gel (LK6D) thin-layer plates, V, VO and analyzed as described for hepatocytes.
Inhibition of cholesterol synthesis is determined by comparing the percent of label in the cholesterol peak from control and drug-treated cultures. Results are expressed as 150 values, and are derived from composite dose response curves from two or more experiments. A 95% confidence interval for the 150 value is also calculated from the composite dose response curves.

Question: “(S)-4-[[[4-(4-Fluorophenyl)-1,2-bis(1-methylethyl)-5-phenyl-1H-pyrrol-3-yl]-ethynyl]hydroxyphosphinyl]-3-hydroxybutanoic acid, dilithium salt [SQ 34,346]” was tested. Which IC50 did it give?
Answer: Its IC50 is 2.5 µM.
